The subject of this experiment is cancer cells. The experiment can be described thus: MTS cell growth inhibition assay (72 hours). Format: cell-based. How it is done: Cells were maintained at 37° C., 5% CO2 in DMEM media supplemented with 1% fetal bovine serum, penicillin/streptomycin and fungizone (Invitrogen). Cells were seeded into 96-well tissue culture plates at 3000 per well and cultured at 37° C. for 18 hours. Test compounds were dissolved and diluted to 300× in DMSO then further diluted 1:40 in DMEM before addition to cells (1:7.5 dilution). Cells were incubated with test compounds for 72 hours followed by incubation with tetrazolium compound (3-(4,5-dimethylthiazol-2-yl)-5-(3-carboxymethoxyphenyl)-2-(4-sulfophenyl)-2H-tetrazolium, inner salt; MTS) and the electron coupling reagent, phenazine methosulfate (PMS) for 4 hours. […] The ability of compounds to inhibit cell growth in this assay is correlated with the reduction of dehydrogenase enzyme activity found in metabolically active cells. The measurement of the absorbance of the formazan was assessed using an ENVISION™ (Perkin Elmer) microplate reader at 492 nm. The calculated IC50 value is the concentration of the test compound that causes a 50% decrease in the absorbance. […] A=>79% inhibition, B=>50 to 79% inhibition, C=<50% inhibition.

[1] abbreviates: Homo sapiens, DLD-1, 72 h, DLD-1 cells, read-out: DLD-1 MTS 72 hr at 10 μM.
Where [2] appears, read: Homo sapiens, KATO III, 72 h, KATO III cells, read-out: KATO III MTS 72 hr at 10 μM.
[3] abbreviates: Homo sapiens, MDA-MB-231, 72 h, MDA-MB-231 cells, read-out: MDA-MB-231 MTS 72 hr at 10 μM.
Setting [4] is: Homo sapiens, NCI-H1299, 72 h, NCI-H1299 cells, read-out: NCI-H1299 MTS 72 hr at 10 μM.
The mark [5] stands for this setting: PaCa-2, 72 h, PACA-2 cells, read-out: PACA-2 MTS 72 hr at 10 μM.

SMILES strings stand for the structures. Like-named read-outs stand apart in the source and are kept apart here. Where only a bound is given, the exact number is not on record here.

Turning to `COc1ccc(-c2ccc(S(=O)(=O)N3CC(Nc4nc(N)nc5[nH]ncc45)Cc4ccccc43)cc2)cc1` (stereo not shown) [Compound 60, N4-(1-(4′-methoxybiphenyl-4-ylsulfonyl)-1,2,3,4-tetrahydroquinolin-3-yl)-1H-pyrazolo[3,4-d]pyrimidine-4,6-diamine], the inhibition at 10 µM runs as follows: under setting [1], below 50%; under setting [2], below 50%; under setting [3], below 50%; under setting [4], below 50%; under setting [5], below 50%.
For `CCC(C)(C)c1ccc(S(=O)(=O)N2CC(Nc3nc(N)nc4[nH]ncc34)Cc3ccccc32)cc1` (stereo not shown) [Compound 61, N4-(1-(4-tert-pentylphenylsulfonyl)-1,2,3,4-tetrahydroquinolin-3-yl)-1H-pyrazolo[3,4-d]pyrimidine-4,6-diamine], the inhibition at 10 µM was below 50% under setting [1]; below 50% under setting [2]; below 50% under setting [3]; below 50% under setting [4]; below 50% under setting [5].
In the case of `Nc1nc(NC2Cc3ccccc3N(S(=O)(=O)c3ccc(Br)c(F)c3)C2)c2cn[nH]c2n1` (stereo not shown) [Compound 62, N4-(1-(4-bromo-3-fluorophenylsulfonyl)-1,2,3,4-tetrahydroquinolin-3-yl)-1H-pyrazolo[3,4-d]pyrimidine-4,6-diamine], the inhibition at 10 µM runs as follows: under setting [1], below 50%; under setting [2], below 50%; under setting [3], below 50%; under setting [4], below 50%; under setting [5], below 50%.
Take `COc1ccc(-c2cccc(S(=O)(=O)N3CC(Nc4nc(N)nc5[nH]ncc45)Cc4ccccc43)c2)cc1` (stereo not shown) [Compound 63, N4-(1-(4′-methoxybiphenyl-3-ylsulfonyl)-1,2,3,4-tetrahydroquinolin-3-yl)-1H-pyrazolo[3,4-d]pyrimidine-4,6-diamine]: the inhibition at 10 µM was 50 to 79% under setting [1]; above 79% under setting [2]; below 50% under setting [3]; 50 to 79% under setting [4]; 50 to 79% under setting [5].
On to `Nc1nc(NC2Cc3ccccc3N(S(=O)(=O)c3ccc(Oc4ccccc4)nc3)C2)c2cn[nH]c2n1` (stereo not shown) [Compound 64, N4-(1-(6-phenoxypyridin-3-ylsulfonyl)-1,2,3,4-tetrahydroquinolin-3-yl)-1H-pyrazolo[3,4-d]pyrimidine-4,6-diamine], for which the inhibition at 10 µM was below 50% under setting [1]; below 50% under setting [2]; below 50% under setting [3]; below 50% under setting [4]; below 50% under setting [5].
Consider `Nc1nc(NC2Cc3ccccc3N(S(=O)(=O)c3ccc(-c4ccc(F)cc4)cc3)C2)c2cn[nH]c2n1` (stereo not shown) [Compound 65, N4-(1-(4′-fluorobiphenyl-4-ylsulfonyl)-1,2,3,4-tetrahydroquinolin-3-yl)-1H-pyrazolo[3,4-d]pyrimidine-4,6-diamine], for which the inhibition at 10 µM under setting [1] fell in the range of 50 to 79%; the inhibition at 10 µM under setting [2] was above 79%; the inhibition at 10 µM under setting [3] is 50 to 79%; the inhibition at 10 µM under setting [4] lay within 50 to 79%; the inhibition at 10 µM under setting [5] is above 79%.
As to `Nc1nc(NC2Cc3ccccc3N(S(=O)(=O)c3cc(C(F)(F)F)ccc3Cl)C2)c2cn[nH]c2n1` (stereo not shown) [Compound 66, N4-(1-(2-chloro-5-(trifluoromethyl)phenylsulfonyl)-1,2,3,4-tetrahydroquinolin-3-yl)-1H-pyrazolo[3,4-d]pyrimidine-4,6-diamine], the inhibition at 10 µM under setting [1] was below 50%; the inhibition at 10 µM under setting [2] is below 50%; the inhibition at 10 µM under setting [3] is below 50%; the inhibition at 10 µM under setting [4] is below 50%; the inhibition at 10 µM under setting [5] was below 50%.
Consider `Nc1nc(NC2Cc3ccccc3N(S(=O)(=O)c3ccsc3)C2)c2cn[nH]c2n1` (stereo not shown) [Compound 67, N4-(1-(thiophen-3-ylsulfonyl)-1,2,3,4-tetrahydroquinolin-3-yl)-1H-pyrazolo[3,4-d]pyrimidine-4,6-diamine], for which the inhibition at 10 µM runs as follows: under setting [1], below 50%; under setting [2], below 50%; under setting [3], below 50%; under setting [4], below 50%; under setting [5], below 50%.
With `Nc1nc(NC2Cc3ccccc3N(S(=O)(=O)c3ccc(OC(F)(F)F)cc3)C2)c2cn[nH]c2n1` (stereo not shown) [Compound 68, N4-(1-(4-(trifluoromethoxy)phenylsulfonyl)-1,2,3,4-tetrahydroquinolin-3-yl)-1H-pyrazolo[3,4-d]pyrimidine-4,6-diamine], the inhibition at 10 µM runs as follows: under setting [1], below 50%; under setting [2], below 50%; under setting [3], below 50%; under setting [4], below 50%; under setting [5], below 50%.
In the case of `Cc1ccc(Oc2ccc(S(=O)(=O)N3CC(Nc4nc(N)nc5[nH]ncc45)Cc4ccccc43)cc2)cc1` (stereo not shown) [Compound 69, N4-(1-(4-(p-tolyloxy)phenylsulfonyl)-1,2,3,4-tetrahydroquinolin-3-yl)-1H-pyrazolo[3,4-d]pyrimidine-4,6-diamine], the inhibition at 10 µM is above 79% under setting [1]; above 79% under setting [2]; above 79% under setting [3]; above 79% under setting [4]; above 79% under setting [5].
As to `Nc1nc(NC2Cc3ccccc3N(S(=O)(=O)c3cccc(OC(F)(F)F)c3)C2)c2cn[nH]c2n1` (stereo not shown) [Compound 70, N4-(1-(3-(trifluoromethoxy)phenylsulfonyl)-1,2,3,4-tetrahydroquinolin-3-yl)-1H-pyrazolo[3,4-d]pyrimidine-4,6-diamine], the inhibition at 10 µM under setting [1] is below 50%; the inhibition at 10 µM under setting [2] lay in the range of 50 to 79%; the inhibition at 10 µM under setting [3] is below 50%; the inhibition at 10 µM under setting [4] was below 50%; the inhibition at 10 µM under setting [5] was below 50%.
On to `Cc1ccccc1Oc1cccc(S(=O)(=O)N2CC(Nc3nc(N)nc4[nH]ncc34)Cc3ccccc32)c1` (stereo not shown) [Compound 71, N4-(1-(3-(o-tolyloxy)phenylsulfonyl)-1,2,3,4-tetrahydroquinolin-3-yl)-1H-pyrazolo[3,4-d]pyrimidine-4,6-diamine], for which the inhibition at 10 µM runs as follows: under setting [1], above 79%; under setting [2], above 79%; under setting [3], above 79%; under setting [4], 50 to 79%; under setting [5], above 79%.
On to `COc1cc(C)c(S(=O)(=O)N2CC(Nc3nc(N)nc4[nH]ncc34)Cc3ccccc32)c(C)c1C` (stereo not shown) [Compound 72, N4-(1-(4-methoxy-2,3,6-trimethylphenylsulfonyl)-1,2,3,4-tetrahydroquinolin-3-yl)-1H-pyrazolo[3,4-d]pyrimidine-4,6-diamine], for which the inhibition at 10 µM under setting [1] is above 79%; the inhibition at 10 µM under setting [2] is above 79%; the inhibition at 10 µM under setting [3] lay in the range of 50 to 79%; the inhibition at 10 µM under setting [4] was below 50%; the inhibition at 10 µM under setting [5] was above 79%.
As for `COC(=O)CCc1ccc(S(=O)(=O)N2CC(Nc3nc(N)nc4[nH]ncc34)Cc3ccccc32)cc1` (stereo not shown) [Compound 73, methyl 3-(4-(3-(6-amino-1H-pyrazolo[3,4-d]pyrimidin-4-ylamino)-3,4-dihydroquinolin-1(2H)-ylsulfonyl)phenyl)propanoate], the inhibition at 10 µM under setting [1] is below 50%; the inhibition at 10 µM under setting [2] is below 50%; the inhibition at 10 µM under setting [3] was below 50%; the inhibition at 10 µM under setting [4] is below 50%; the inhibition at 10 µM under setting [5] was below 50%.
In the case of `Nc1nc(NC2Cc3ccccc3N(S(=O)(=O)c3ccc(C(F)(F)F)cc3Cl)C2)c2cn[nH]c2n1` (stereo not shown) [Compound 74, N4-(1-(2-chloro-4-(trifluoromethyl)phenylsulfonyl)-1,2,3,4-tetrahydroquinolin-3-yl)-1H-pyrazolo[3,4-d]pyrimidine-4,6-diamine], the inhibition at 10 µM reads like this: under setting [1], below 50%; under setting [2], below 50%; under setting [3], below 50%; under setting [4], below 50%; under setting [5], below 50%.
Consider `Nc1nc(NC2Cc3ccccc3N(S(=O)(=O)c3ccc(-c4ccc(Cl)cc4)cc3)C2)c2cn[nH]c2n1` (stereo not shown) [Compound 75, N4-(1-(4′-chlorobiphenyl-4-ylsulfonyl)-1,2,3,4-tetrahydroquinolin-3-yl)-1H-pyrazolo[3,4-d]pyrimidine-4,6-diamine], for which the inhibition at 10 µM reads like this: under setting [1], above 79%; under setting [2], above 79%; under setting [3], above 79%; under setting [4], 50 to 79%; under setting [5], above 79%.
`Nc1nc(NC2Cc3ccccc3N(S(=O)(=O)c3ccc4c(c3)OCCO4)C2)c2cn[nH]c2n1` (stereo not shown) [Compound 76, N4-(1-(2,3-dihydrobenzo[b][1,4]dioxin-6-ylsulfonyl)-1,2,3,4-tetrahydroquinolin-3-yl)-1H-pyrazolo[3,4-d]pyrimidine-4,6-diamine]: the inhibition at 10 µM under setting [1] was below 50%; the inhibition at 10 µM under setting [2] was below 50%; the inhibition at 10 µM under setting [3] was below 50%; the inhibition at 10 µM under setting [4] was below 50%; the inhibition at 10 µM under setting [5] is 50 to 79%.
